Data: PubChem BioAssay AID1996
In brackets after ≈: the same amount, converted by molar mass.

Settings: buffer; pH 7.4; 200.0 µM

SMILES | solubility kinetic
O=C(Cc1ccc(Cl)cc1)NCC(=O)N1CCCCC1 | 39.7 µg/mL (≈ 135 µM)
O=C1CCN(S(=O)(=O)c2ccc(Cl)cc2)CCN1 | > 43.3 µg/mL
Cc1ncc([N+](=O)[O-])n1CC(=O)Nc1cccc(C(F)(F)F)c1 | 6 µg/mL (≈ 18.3 µM)
Cc1nc(C)c(C(=O)C2=C(O)C(=O)N(CCN(C)C)C2c2ccco2)s1 (stereo not given) | > 56.3 µg/mL
O=C(Nc1cccc(Cl)c1)Nc1ccon1 | 10.7 µg/mL (≈ 45 µM)
CCCC12CN3CC(C)(CN(C1)C3c1ccc([N+](=O)[O-])o1)C2=O (stereo not given) | > 47.9 µg/mL
CCN(CC)CCNS(=O)(=O)c1ccc(/C=C/C(=O)O)cc1 | 41 µg/mL (≈ 126 µM)
CC(C)OC(=O)NCCOC(=O)Nc1ccc(Cl)cc1 | 36.5 µg/mL (≈ 121 µM)
CCOC(=O)C1=C(C)OC(N)=C(C#N)C1c1ccc(C)s1 (stereo not given) | 13.2 µg/mL (≈ 43.4 µM)
CC1(C)SC[C@H](C(=O)Nc2cccc(Cl)c2)N1C=O | > 44.8 µg/mL
O=C(/C=C/c1ccc(F)cc1)N1CC[C@@]2(O)CCCC[C@H]2C1 | > 45.5 µg/mL
O=C(COC(=O)c1c(Cl)cccc1Cl)NC1CCCCCCC1 | 8.2 µg/mL (≈ 22.9 µM)
O=C(COC(=O)c1ccc(O)cc1)Nc1ccc2c(c1)OCO2 | 15.6 µg/mL (≈ 49.5 µM)
O=C(NC1CCCCC1)NC1C2CC3CC(C2)CC1C3 (stereo not given) | 2.3 µg/mL (≈ 8.32 µM)
CC(C)CN(C(=O)CCNC(=O)c1ccc([N+](=O)[O-])cc1)C1CCS(=O)(=O)C1 (stereo not given) | 57 µg/mL (≈ 139 µM)
Cc1nc(C)c(-c2csc(Nc3ccc(F)cc3)n2)s1 | 1.8 µg/mL (≈ 5.89 µM)
O=C(O)CSCc1nc2cccnc2n1C1CCCCC1 | 42.1 µg/mL (≈ 138 µM)
Cc1ccc(Cl)cc1NC(=S)N1CCCCCC1 | 37.8 µg/mL (≈ 134 µM)
Cc1cnc(NC(=O)c2ccc3ncsc3c2)s1 | 3.5 µg/mL (≈ 12.7 µM)
COc1ccc(NC(=O)NC2(C(=O)N3CCCC(C)C3)CCCCC2)cc1 (stereo not given) | 36.2 µg/mL (≈ 96.9 µM)
Cc1ccc(C)n1-c1ccc(-c2ccnc(N)n2)cc1 | 22.5 µg/mL (≈ 85.1 µM)
Cc1ccc(C(=O)OCC(=O)NCCc2ccc(S(N)(=O)=O)cc2)o1 | > 55 µg/mL
CC(C(=O)c1c[nH]c2ccccc12)N1CCN(C(=O)c2ccco2)CC1 (stereo not given) | > 52.7 µg/mL
CCOC(=O)Cn1c2ccc(C)cc2c2nc(C)sc21 | 38.3 µg/mL (≈ 133 µM)

The remaining lines, values ahead:

solubility kinetic | SMILES
> 49 µg/mL | COc1ccc(C(=O)N2CCN(c3ccccc3OC)CC2)cc1
> 50.6 µg/mL | CC(OC(=O)c1c(F)cccc1F)C(=O)NCCC1=CCCCC1 (stereo not given)
41.8 µg/mL (≈ 145 µM) | CC(C)NC(=O)N(Cc1ccccc1)Cc1cccs1
41.6 µg/mL (≈ 120 µM) | O=C(c1ccc(NC(=S)NCc2ccco2)cc1)N1CCOCC1
35.6 µg/mL (≈ 126 µM) | COc1cc2c(cc1OC)CN(Cc1ccccc1)CC2
< 0.6 µg/mL | CO/N=C(/COc1ccc(F)cc1)c1ccc(OC)cc1
> 54.4 µg/mL | CCOc1ccccc1N1CCN(Cc2cnc(-c3ccccc3)[nH]2)CC1
40.6 µg/mL (≈ 147 µM) | Cc1cc(OCC(=O)Nc2ccncc2)ccc1Cl
33.2 µg/mL (≈ 149 µM) | O=C1CCN2C=Nc3cccc4ccc1c2c34
> 47.8 µg/mL | CCOc1ccccc1CNC(=O)CNC(=O)c1cccs1
> 51.4 µg/mL | CCC(C(=O)O)n1cnc2scc(-c3ccc(C)c(C)c3)c2c1=O (stereo not given)
7.3 µg/mL (≈ 24.4 µM) | COc1ccc(CCC(=O)Nc2ccc3c(c2)OCO3)cc1
> 41.1 µg/mL | CC1CCCC(C)N1C(=O)c1cc(-c2ccco2)on1 (stereo not given)
36 µg/mL (≈ 124 µM) | CN(C)c1c(F)cc(C(=O)NCc2ccccc2)cc1F
31.3 µg/mL (≈ 124 µM) | Cc1cccc(NC(=O)CCCc2ccccc2)c1
26.3 µg/mL (≈ 83.9 µM) | COc1ccc(Nc2nc(-c3cccnc3)cs2)c(OC)c1
17.1 µg/mL (≈ 56.7 µM) | Fc1cccc(C2CCCCN2Cc2nc(C3CC3)no2)c1 (stereo not given)
38.5 µg/mL (≈ 134 µM) | O=C(NC1CCCCC1)C1CC(=O)N(c2ccccc2)C1 (stereo not given)

solubility kinetic | SMILES
> 37.5 µg/mL | O=C(NCC(=O)N1CCCC1)c1ccccc1F
> 55.3 µg/mL | CC(C)C(C)(C#N)NC(=O)CN1C(=O)NC2(CCCc3ccccc32)C1=O (stereo not given)
< 0.6 µg/mL | O=S(=O)(c1ccc(Cl)c2ccccc12)N1CCCC1
> 40.6 µg/mL | CCn1c(C)c(C)c2cc(C(=O)N3CCCC3)ccc21
> 40.4 µg/mL | O=C(Nc1ccccc1)c1ccc2c(c1)OCCCO2
5.3 µg/mL (≈ 14.2 µM) | CCOC(=O)C1=C(c2ccccc2)NC(=S)NC1c1ccc(Cl)cc1 (stereo not given)
18.4 µg/mL (≈ 44.1 µM) | CC(OC(=O)[C@@H]1CCCN1C(=O)c1cccs1)C(=O)Nc1cccc([N+](=O)[O-])c1 (stereo not given in full)
0.3 µg/mL (≈ 0.9 µM) | COC(=O)CSc1nc(NCc2ccccc2)nc(N(C)C)n1
> 58.1 µg/mL | COc1cc(C(=O)N2CCC(C(N)=O)CC2)ccc1OCc1c(C)noc1C
10.2 µg/mL (≈ 24.2 µM) | CC(=O)Nc1ccc(NC(=O)C(C)OC(=O)CCSc2ccccc2Cl)cc1 (stereo not given)
27.7 µg/mL (≈ 120 µM) | CCOc1cccnc1Sc1ccccc1
> 46.2 µg/mL | O=C(CCC(=O)c1cccs1)NCc1cccc(Cl)c1
> 55.7 µg/mL | CC(C)(C)c1ccc(C(CC(=O)O)NC(=O)CSc2ccccc2)cc1 (stereo not given)
11.1 µg/mL (≈ 31.9 µM) | Cc1cccc(C(=O)NC2CC3CCCC(C2)N3Cc2ccccc2)c1 (stereo not given)
5.4 µg/mL (≈ 22.8 µM) | CN(C)C(=S)Nc1nc2ccccc2s1
> 48.5 µg/mL | CN1CCN(c2ccccc2/C=N/NC(=O)c2cccnc2)CC1
36 µg/mL | COc1ccc(OCCCn2ccnc2)cc1.Cl
> 54.2 µg/mL | CC(=O)Nc1ccc(NS(=O)(=O)c2ccc3c(c2)oc(=O)n3C)cc1
